Source: US20240109881A1, “Heteroaryl Compounds as Ligand Directed Degraders of IRAK4” (Bristol-Myers Squibb Company, priority 2022, published 2024)

Molecular target: T1, IRAK4 (Homo sapiens, UniProt Q9NWZ3)
T1 construct: endogenous in cells; host or cells: THP-1 cells
T1 sequence (Q9NWZ3 1-460): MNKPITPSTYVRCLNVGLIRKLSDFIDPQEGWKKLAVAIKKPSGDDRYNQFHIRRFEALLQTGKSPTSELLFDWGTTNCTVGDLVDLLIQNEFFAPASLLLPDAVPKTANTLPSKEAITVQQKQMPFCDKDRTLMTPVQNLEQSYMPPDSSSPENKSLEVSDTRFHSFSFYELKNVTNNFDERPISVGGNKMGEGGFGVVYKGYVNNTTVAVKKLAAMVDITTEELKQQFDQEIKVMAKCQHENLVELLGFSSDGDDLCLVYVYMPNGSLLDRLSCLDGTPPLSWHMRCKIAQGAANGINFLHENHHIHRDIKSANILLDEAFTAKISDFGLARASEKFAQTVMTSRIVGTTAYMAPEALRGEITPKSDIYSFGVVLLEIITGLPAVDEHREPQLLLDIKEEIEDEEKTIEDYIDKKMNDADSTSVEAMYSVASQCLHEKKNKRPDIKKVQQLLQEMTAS
Assay: LVL THP1 HTRF (THP1 Homogeneous Time Resolved Fluorescence)
Format: cell-based
Details: THP1 cells, 18 h incubation with compound; for DC50: read-out: LVL THP1 HTRF EC50
Method: Cell culture media was prepared in a tissue culture hood in a sterile environment by adding 10% FBS and 1% Penicillin Streptomycin to 500 mL no phenol red RPMI 1640 media. The media was filtered through a Nalgene Bottle Top Filter and stored at 4° C.
For Homogenous Time Resolved Fluorescence (HTRF) assays, a Cisbio HTRF kit was used, which included: Lysis Buffer #1 4×, Blocking Reagent #3 100×, 20× Antibody 1 (Anti-IRAK4 d2), 20× Antibody 2 (Anti-IRAK4 k), and Detection Buffer.
The THP1 plates were prepared by the following method. For each dosing plate, a duplicate for CTG assay was prepared. Two THP-1 T-175 flasks could be used to plate one 384 well plate. The cells were collected from two T-175 flasks into 200 mL centrifuge tubes and spun down at 1200 rpm for 10 min. The supernatant was removed completely and cells were resuspended in 7.5 mL cell culture media. To 5 μL of the cell suspension was added 25 μL of media and 30 μL of Trypan Blue stain. The cells were counted using countess (automated cell counter, Thermo Fisher Scientific) twice and the viability and live cell count was recorded. The actual cell count was […] the live cell count. Based on the count, a cell suspension was prepared in colorless RPMI media for a final concentration of 7.5e6 cells/mL. Using Standard cassette multidrop combi, 20 μL of the 7.5e6 cells/mL cell stock was added to entire 384 well plate but for top half of column 1 (negative control) The multidrop combi was always primed to achieve a steady flow and washed after use with 20 mL de-ionized water followed by 20 mL alcohol. The cells were incubated in 5% CO2 incubator at 37° C.
Dosing was conducted using the following method. To dose assay plates and CTG plate was added 20 nL of compounds in DMSO using Echo (Beckman Coulter), and the plates were incubated at 37° C. for 18 h. The compound plates were spun at 1200 rpm for 1 min before dosing. The compound plate was sealed and properly stored during incubation.
After dosing, an HTRF assay was conducted using the following method. The treatment plates (IRAK4_HTRF) were centrifuged at 600 g for 10 min. Using CyBio Felix, Automated liquid handler (Analytikjena), 13 μL cell culture media was removed. To all columns, 7.5 μL lysis buffer was added, and an additional 7.5 μL of lysis buffer was added to column 1(top half, negative control). The plate was incubated on a shaker at room temperature for 2 h. The plate was spun down at 600 g for 5 min. Custom 20×IRAK4 Antibody obtained from CISBIO Anti-IRAK4-d2 (acceptor Ab) and Anti-IRAK4-K (donor Ab) were diluted to 1× antibody mix Using a multichannel repeater, 4 μL of 1× antibody mix was added to each wellThe plate was spun down at 600 g for 5 min and incubated in the dark at room temperature for 18 h The next day (after 18 hrs), HTRF assay plate was spun down at 600 g for 5 min and read at 665/615 nm using a Envision plate reader.

Row | LVL THP1 HTRF YMIN | DC50 | SMILES
1 | 93.2% | 1000 nM | C[C@H](C#N)Nc1cc(-n2ncc3cc(C#N)c(N)nc32)ncc1-n1cc([C@H]2CC[C@H](CCN3CCN(c4ccc([C@@]5(C)CCC(=O)NC5=O)cn4)CC3)CC2)nn1 (single isomer, unassigned) [P-265]
2 | 54.7% | 94.7 nM | C[C@H](C#N)Nc1cc(-n2ncc3cc(C#N)c(N)nc32)ncc1-n1cc([C@H]2CC[C@H](CCN3CCN(c4cnc([C@@]5(C)CCC(=O)NC5=O)cn4)CC3)CC2)nn1 (single isomer, unassigned) [P-267]
3 | −0.2% | 2.1 nM | C[C@H](C#N)Nc1cc(-n2ncc3cc(C#N)c(N)nc32)ncc1-n1cc([C@H]2CC[C@H](CCN3CCN(c4cnc([C@@]5(C)CCC(=O)NC5=O)cn4)CC3)CC2)nn1 (single isomer, unassigned) [P-268]
4 | 90.1% | 111 nM | COc1cc([C@@]2(C)CCC(=O)NC2=O)ccc1N1CCN(CC[C@H]2CC[C@H](c3cn(-c4cnc(-n5ncc6cc(C#N)c(N)nc65)cc4N[C@H](C)C#N)nn3)CC2)C[C@@H]1C (single isomer, unassigned) [P-303]
5 | 5.0% | 11.9 nM | COc1cc([C@@]2(C)CCC(=O)NC2=O)ccc1N1CCN(CC[C@H]2CC[C@H](c3cn(-c4cnc(-n5ncc6cc(C#N)c(N)nc65)cc4N[C@H](C)C#N)nn3)CC2)C[C@H]1C (single isomer, unassigned) [P-304]
6 | 84.3% | 0.2 nM | COc1cc([C@@]2(C)CCC(=O)NC2=O)ccc1N1CCN(CC[C@H]2CC[C@H](c3cn(-c4cnc(-n5ncc6cc(C#N)c(N)nc65)cc4N[C@H](C)C#N)nn3)CC2)C[C@H]1C (single isomer, unassigned) [P-305]
7 | 1.5% | 3.7 nM | C[C@H](C#N)Nc1cc(-n2ncc3cc(C#N)c(N)nc32)ncc1-n1cc([C@H]2CC[C@H](CCN3CCN(c4ccc([C@@]5(C)CCC(=O)NC5=O)nc4)CC3)CC2)nn1 (single isomer, unassigned) [P-306]
8 | 86.3% | 6.6 nM | C[C@H](C#N)Nc1cc(-n2ncc3cc(C#N)c(N)nc32)ncc1-n1cc([C@H]2CC[C@H](CCN3CCN(c4ccc([C@@]5(C)CCC(=O)NC5=O)nc4)CC3)CC2)nn1 (single isomer, unassigned) [P-307]
9 | 3.5% | 2.1 nM | C[C@H](C#N)Nc1cc(-n2ncc3cc(C#N)c(N)nc32)ncc1-n1cc([C@H]2CC[C@H](CCN3CCN(c4ccc([C@@]5(C)CCC(=O)NC5=O)nn4)CC3)CC2)nn1 (single isomer, unassigned) [P-308]

Second part, the compound before the results:

Row | SMILES | LVL THP1 HTRF YMIN | DC50
10 | C[C@H](C#N)Nc1cc(-n2ncc3cc(C#N)cnc32)ncc1C(=O)N[C@H]1CC[C@H](CCN2CCN(c3ccc([C@@]4(C)CCC(=O)NC4=O)cn3)[C@@H](C)C2)CC1 (single isomer, unassigned) [P-276] | 6.0% | 11.4 nM
11 | C[C@H](C#N)Nc1cc(-n2ncc3cc(C#N)cnc32)ncc1-n1cc([C@H]2CC[C@](O)(CCN3CCN(c4ccc([C@@]5(C)CCC(=O)NC5=O)nc4)CC3)CC2)nn1 (single isomer, unassigned) [P-280] | 47.7% | 107 nM
12 | C[C@H](C#N)Nc1cc(-n2ncc3cc(C#N)cnc32)ncc1-n1cc([C@H]2CC[C@H](CCN3C[C@@H]4CN(c5ccc([C@@]6(C)CCC(=O)NC6=O)cc5)C[C@@H]4C3)CC2)nn1 (single isomer, unassigned) [P-281] | 24.0% | 106 nM
13 | C[C@H](C#N)Nc1cc(-n2ncc3cc(C#N)cnc32)ncc1-n1cc([C@H]2CC[C@H](CCN3CC[C@H](c4ccc([C@@]5(C)CCC(=O)NC5=O)cc4)C[C@H]3C)CC2)nn1 (single isomer, unassigned) [P-282] | 1.0% | 3.4 nM
14 | C[C@H](C#N)Nc1cc(-n2ncc3cc(C#N)cnc32)ncc1-n1cc([C@H]2CC[C@H](CCN3CC[C@@H](c4ccc([C@@]5(C)CCC(=O)NC5=O)cc4)C[C@@H]3C)CC2)nn1 (single isomer, unassigned) [P-283] | 5.2% | 5.7 nM
15 | C[C@H](C#N)Nc1cc(-n2ncc3cc(C#N)cnc32)ncc1-n1cc([C@H]2CC[C@H](CCN3CC[C@H]4[C@@H]3CCN4c3ccc([C@@]4(C)CCC(=O)NC4=O)nc3)CC2)nn1 (single isomer, unassigned) [P-286] | 6.6% | 8.5 nM
16 | C[C@H](C#N)Nc1cc(-n2ncc3cc(C#N)cnc32)ncc1-n1cc([C@H]2CC[C@H](CCN3CC[C@H]4[C@@H]3CCN4c3ccc([C@@]4(C)CCC(=O)NC4=O)nc3)CC2)nn1 (single isomer, unassigned) [P-287] | 51.0% | 1350 nM
17 | C[C@H](C#N)Nc1cc(-n2ncc3cc(C#N)cnc32)ncc1-n1cc([C@H]2CC[C@H](CCN3CC[C@H]4[C@@H]3CCN4c3ccc([C@@]4(C)CCC(=O)NC4=O)nc3)CC2)nn1 (single isomer, unassigned) [P-288] | 4.7% | 7.1 nM
18 | C[C@H](C#N)Nc1cc(-n2ncc3cc(C#N)cnc32)ncc1-n1cc([C@H]2CC[C@H](CCN3CCN(c4ccc([C@@]5(C)CCC(=O)NC5=O)nc4)[C@@H](C)C3)CC2)nn1 (single isomer, unassigned) [P-289] | 7.7% | 11.3 nM
19 | C[C@H](C#N)Nc1cc(-n2ncc3cc(C#N)cnc32)ncc1-n1cc([C@H]2CC[C@H](CCN3CCN(c4ccc([C@@]5(C)CCC(=O)NC5=O)nc4)[C@@H](C)C3)CC2)nn1 (single isomer, unassigned) [P-290] | 33.6% | 252 nM
20 | C[C@H](C#N)Nc1cc(-n2ncc3cc(C#N)cnc32)ncc1-n1cc([C@H]2CC[C@](O)(CCN3CCN(c4ccc([C@@]5(C)CCC(=O)NC5=O)cc4)[C@@H](C)C3)CC2)nn1 (single isomer, unassigned) [P-291] | −4.4% | 57.7 nM
21 | C[C@H](C#N)Nc1cc(-n2ncc3cc(C#N)cnc32)ncc1-n1cc([C@H]2CC[C@](O)(CCN3CCN(c4ccc([C@@]5(C)CCC(=O)NC5=O)cc4)CC3)CC2)nn1 (single isomer, unassigned) [P-292] | 7.2% | 32 nM
22 | C[C@H](C#N)Nc1cc(-n2ncc3cc(C#N)cnc32)ncc1-n1cc([C@H]2CC[C@](O)(CCN3CCN(c4ccc([C@@]5(C)CCC(=O)NC5=O)cn4)CC3)CC2)nn1 (single isomer, unassigned) [P-293] | 10.5% | 65.8 nM
23 | C[C@H](C#N)Nc1cc(-n2ncc3cc(C#N)cnc32)ncc1-n1cc([C@H]2CC[C@](O)(CCN3CCN(c4ccc([C@@]5(C)CCC(=O)NC5=O)nc4)CC3)CC2)nn1 (single isomer, unassigned) [P-294] | 76.0% | 1230 nM
24 | C[C@H](C#N)Nc1cc(-n2ncc3cc(C#N)cnc32)ncc1-n1cc([C@H]2CC[C@](O)(CCN3CCN(c4ccc([C@@]5(C)CCC(=O)NC5=O)nc4)CC3)CC2)nn1 (single isomer, unassigned) [P-295] | 39.8% | 350 nM
25 | COc1cc([C@@]2(C)CCC(=O)NC2=O)ccc1N1CCN(CC[C@H]2CC[C@H](c3cn(-c4cnc(-n5ncc6cc(C#N)c(N)nc65)cc4N[C@H](C)C#N)nn3)CC2)C[C@@H]1C (single isomer, unassigned) [P-302] | 3.3% | 10.5 nM
